# Assays:
# [1] = system: female Syrian golden hamsters; experiment: Post-coital antifertility activity in mated hamsters, subcutaneous (autopsy on day 14: implantation sites, live fetuses); format: in vivo, Syrian golden hamster; details: for ED50: Mesocricetus auratus, sc, s.c. hamsters, days 4-8 of pregnancy, read-out: ED50 (100% activity, i.e. absence of live fetuses, in 50% of the animals); for antifertility activity (active according to the criteria): s.c. in sesame oil, 10 mg/kg daily for 5 days (days 4-8 of pregnancy), hamsters
# Description: (§1) Representative experiments for assessing antifertility activity were carried out with female Syrian golden hamsters weighing 100 to 130 g. The animals were mated and the presence of sperm in the vagina was taken as evidence of mating. The day sperm was detected was considered day one of pregnancy, since in our laboratory and those of other investigators 90 to 100% of animals that mate as evidenced by vaginal sperm are pregnant.
# (§2) Pregnancy was later confirmed at the time of autopsy by presence of fetuses or implantation sites in the uterus.
# (§3) Even if an animal aborts the fetus, implantation scars still remain as evidence that the animal has been pregnant.
# The animals were autopsied on day 14 of pregnancy and the uteri were examined for evidence of pregnancy (implantation sites, fetal resorptions or live fetuses), hemorrage, and evidence of abnormalities of the uterus, placenta or fetuses.
# hamsters = experiment: Post-coital antifertility activity in mated hamsters, oral route; format: in vivo, Syrian golden hamster; details: for reduction of live fetuses: oral, 20 mg/Kg, hamsters
# Description: as §1, §2, §3
# The animals were autopsied on day 14 of pregnancy and the uteri were examined for evidence of pregnancy (implantation sites, fetal resorptions or live fetuses), hemorrage, and evidence of abnormalities of the uterus, placenta or fetuses. A compound was considered to be active if there was a reduction of live fetuses in at least 60% of the treated animals and the presence of implantation sites proves the animal to have been pregnant. […] The compounds were then studied for dose-activity relationships and the corresponding ED50 values i.e., 100% activity (absence of live fetuses) in 50% of the animals, were also determined. The following table reports the ED50 values of some representative compounds of the invention:
# Favorable results were also obtained by administering the compounds of the invention by oral route. The experiments for assessing this property were carried out on hamsters following the same procedure as above, with the obvious exception that the compounds were adminstered orally instead of subcutaneously.
Compound,ED50 [1] [mg/kg],antifertility activity (active according to the criteria) [1],"ED50 (hamsters; Mesocricetus auratus, po, p.o. hamsters, read-out: ED50 (100% activity, i.e. absence of live fetuses, in 50% of the animals)) [mg/kg]",reduction of live fetuses (hamsters) [%]
"COc1cccc(-c2n[nH]c(-c3ccccc3CO)n2)c1 [Example 1, 5-(2-hydroxymethylphenyl)-3-(3-methoxyphenyl)-1H-,1,2,4-triazole]",0.08,active,10,60
"COc1cccc(-c2nc(-c3ccccc3C=O)n[nH]2)c1 [Example 3, 2-[5-(3-methoxyphenyl)-1H-1,2,4-triazol-3yl]benzaldehyde]",0.1,active,,60

# Source: patent publication US4370337A, “1,2,4-Triazole derivatives as antifertility agents and pharmaceutical compositions containing them” (Gruppo Lepetit S.p.A., priority 1980, dated 1983)
